Data set [1] concerns SK-CO-1 cells. Kind of data set: SK-CO-1 CTG proliferation assay (120 h) (CRC, G12V). Type of data set: cell-based. The following applies: Homo sapiens. The protocol:
(§1) SK-CO-1 cells (ATCC HTB-39) are dispensed into 384-well plates, flat and clear bottom (Greiner, PNr. 781091) at a density of 500 cells per well in 60 μL EMEM (Sigma M5650)+10% Fetal Calf Serum (HyClone, PNr.: SH30084.03) and incubated at 37° C. in a CO2 incubator overnight. The next day, compounds (10 mM stock in DMSO) are added with the ECHO acoustic liquid handler system (Beckman Coulter), including DMSO controls. Plates are incubated for 120 h, and cell viability is measured using CellTiter-Glo luminescent cell viability reagent (Promega product code G7570). Viability (stated as percent of control) is defined as relative luminescence units RLU of each well divided by the RLU of cells in DMSO controls.

For data set [2], the system named is AsPC-1 cells. Kind of data set: AsPC-1 CTG proliferation assay (120 h) (pancreatic cancer, G12D). Type of data set: cell-based. The following applies: Homo sapiens, ASPC1. Here is the method: The CTG assay is designed to measure quantitatively the proliferation of AsPC-1 cells (ATCC CRL-5985), using the CellTiter Glow Assay Kit (Promega G7571). Cells are grown in RPMI medium (ATCC) supplemented with Fetal Calf Serum (Life Technologies, Gibco BRL, Cat. No. 10270-106). On “day 0” 2000 AsPC-1 cells are seeded in 60 μL RPMI ATCC+10% FCS+ Penstrep in a 384-well plate, flat and clear bottom (Greiner, PNr. 781091). Cells are then incubated in the plates at 37° C. in a CO2 incubator overnight. On day 1, compounds (10 mM stock in DMSO) are added with the ECHO acoustic liquid handler system (Beckman Coulter), including DMSO controls. Plates are incubated for 120 h, and cell viability is measured using CellTiter-Glo luminescent cell viability reagent (Promega product code G7570). Viability (stated as percent of control) is defined as relative luminescence units RLU of each well divided by the RLU of cells in DMSO controls.

Data set [3] in a line: Plasma protein binding assay (PPB), equilibrium dialysis. Type of data set: in vitro ADME. The note with it: bovine, 10% FCS in PBS, read-out: PPB 10% FCS (% fu). The protocol: Binding of test compounds to plasma was determined using equilibrium dialysis (ED) and quantitative mass spectrometry interfaced with liquid chromatography (LC-MS). In brief, ED was performed with dialysis devices consisting of two chambers separated by a semipermeable membrane with a molecular weight cut-off of 5-10 kg/mol. One chamber was filled with 10% FCS in PBS containing 1-10 μmol/L test compound and the other chamber was filled with phosphate-buffer saline (PBS) with or without dextran. The dialysis chamber was incubated for 3-5 hours at 37° C. After incubation, protein was precipitated from aliquots of each chamber and the concentration of test compound in the supernatant of the plasma-containing compartment (cserum) and of the buffer-containing compartment (cbuffer) was determined by LC-MS. The fraction of unbound test compound (not bound to plasma) (fu) was calculated according to the following equation: […]

Data set [4] deals with KRAS G12V Ba/F3 (Homo sapiens, UniProt P01116, G12V, cells depend on it). Briefly: Ba/F3 proliferation assay, KRAS G12V. The format is cell-based. The following applies: 72 h, AlamarBlue, read-out: KRAS G12V Ba/F3 IC50. Here is the method: (§2) Plasmids containing KRASG12 mutants(i.e. G12D, G12C, G12V) are obtained from GeneScript. To generate KRASG12-dependent Ba/F3 models, Ba/F3 cells are transduced with retroviruses containing vectors that harbor KRASG12 isoforms. Platinum-E cells (Cell Biolabs) are used for retrovirus packaging. Retrovirus is added to Ba/F3 cells. To ensure infection, 4 μg/mL polybrene is added and cells are spinfected. […] Cells with an infection efficiency of 10% to 20% are further cultivated and puromycin selection with 1 μg/mL is initiated. As a control, parental Ba/F3 cells are used to show selection status. Selection is considered successful when parental Ba/F3 cells cultures died. To evaluate the transforming potential of KRASG12 mutations, the growth medium is no longer supplemented with IL-3. Ba/F3 cells harboring the empty vector are used as a control. Approximately ten days before conducting the experiments, puromycin is left out.
(§3) Compounds are added using an Access Labcyte Workstation with a Labcyte Echo 550 or 555 accoustic dispenser. All treatments are performed in technical duplicates. […] AlamarBlue™ (ThermoFisher), a viability stain, is added and fluorescence measured in the PerkinElmer Envision HTS Multilabel Reader. The raw data are imported into and analyzed with the Boehringer Ingelheim proprietary software MegaLab (curve fitting based on the program PRISM, GraphPad Inc.).

Data set [5] has as its target KRAS G12D Ba/F3 (Homo sapiens, UniProt P01116, G12D, cells depend on it). Briefly: Ba/F3 proliferation assay, KRAS G12D. Type of data set: cell-based. The following applies: 72 h, AlamarBlue, read-out: KRAS G12D Ba/F3 IC50. The protocol:
as §2, §3

Data set [6] relates to SAS cells. Kind of data set: SAS CTG proliferation assay (120 h) (HNSCC, wt amplified). The format is cell-based. The protocol: as §1, with “SAS” for “SK-CO-1”, “(JCRB0260)” for “(ATCC HTB-39)”, “300” for “500”, “DMEM:F12 (Gibco 31330-038)+10%” for “EMEM (Sigma M5650)+10%”, “overnight” for “overnight.”

KRAS G12V Ba/F3, sequence (P01116 whole entry G12V, canonical isoform): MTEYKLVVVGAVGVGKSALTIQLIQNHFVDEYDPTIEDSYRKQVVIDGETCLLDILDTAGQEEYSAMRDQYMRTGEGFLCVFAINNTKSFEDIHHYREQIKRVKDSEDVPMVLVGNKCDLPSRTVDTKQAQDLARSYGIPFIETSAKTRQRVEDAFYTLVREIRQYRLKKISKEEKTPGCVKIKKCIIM
KRAS G12D Ba/F3, sequence (P01116 whole entry G12D): as the sequence (P01116 whole entry G12V, canonical isoform) above, with V12D counted along it

For `C[C@H](Oc1cc(Oc2nccs2)nc(-c2onc3c2CCC[C@@]32CCCc3sc(N)c(C#N)c32)n1)[C@@H]1CCCN1C` [Example I-1], the IC50 in data set [1] was 0.024 µM; in data set [2], 2.5 µM; in data set [6], 0.019 µM. Also, in data set [3], the fraction unbound worked out at 0.25. Besides, the figures for the GI50 in data set [4] and in data set [5] were 0.003 µM and 0.011 µM, respectively.

For the origin of these results see patent US20250129095A1, “ANNULATED 2-AMINO-3-CYANO THIOPHENES AND DERIVATIVES FOR THE TREATMENT OF CANCER” (Boehringer Ingelheim Int'l GmbH Corp., priority 2021, published 2025).
